Four compounds from ChEMBL document CHEMBL1201862, “PubChem BioAssay data set” (2004) can be followed below.

Calls of active or inactive are those of the source.

The term AC50 denotes the concentration at which the activity in the assay is half-maximal. What is called EC50 is the concentration giving half of the maximal effect. As a reminder, the CC50 is the concentration giving 50% cytotoxicity. Broadly, the IC50 is the point on the concentration scale where inhibition reaches its midpoint.

Test [1] can be described thus: Luminescence Cell-Based Dose Retest to Confirm Inhibitors of Cancer Stem Cells. [Related pubchem assays (depositor defined):AID2717, AID2721]. It is filed as functional. To be noted: Homo sapiens.
Test [2] deals with Escherichia coli. As to the kind of experiment: microbe, parasite or virus in culture.
The subject of test [3] is HeLa. The experiment in a line: HeLa cell cytotoxicity, dose response, cytotoxicity control for MITF activator project, CellTiter-Glo luminescence, cherry-pick samples (AID 540259). It is filed as functional, cell-based. The settings on record: Homo sapiens. In general terms: ATP-based viability assays read luminescence as a measure of living cells.
For test [4], the target named is T1, Streptokinase A (Streptococcus pyogenes serotype M1, UniProt P10520).
T1 sequence (P10520 whole entry): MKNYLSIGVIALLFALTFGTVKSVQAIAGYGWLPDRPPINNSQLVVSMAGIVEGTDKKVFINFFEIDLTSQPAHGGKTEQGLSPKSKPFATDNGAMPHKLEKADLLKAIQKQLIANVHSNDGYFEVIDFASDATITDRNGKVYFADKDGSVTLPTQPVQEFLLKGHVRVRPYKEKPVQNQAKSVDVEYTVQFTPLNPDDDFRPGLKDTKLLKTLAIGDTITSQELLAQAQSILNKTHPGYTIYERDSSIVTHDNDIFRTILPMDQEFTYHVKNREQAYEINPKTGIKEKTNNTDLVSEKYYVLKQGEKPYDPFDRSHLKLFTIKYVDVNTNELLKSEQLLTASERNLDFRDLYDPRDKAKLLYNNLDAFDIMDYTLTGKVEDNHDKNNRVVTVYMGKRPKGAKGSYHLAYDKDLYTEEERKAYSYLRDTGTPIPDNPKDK
As to the kind of experiment: S. pyogenes streptokinase expression inhibitors, potency, dose response, plasminogen activation absorbance, OD405 (AID 1914).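 Further: secreted streptokinase activity via plasminogen activation per viability signal from cell pellet.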 It is filed as functional, Streptococcus pyogenes M1 GAS.

The subject of test [5] is Streptococcus sp. 'group A'. The experiment in a line: growth inhibition of control SK(-) GAS strain, dose response, counter-screen for streptokinase expression inhibitor project, luminescence, kanamycin, BacTiterGlo, confirmation (AID 1900). It is filed as functional, organism-based. On the technique in general: The purpose of a counterscreen is to sort out artefacts and off-target activity.

Test [6] deals with Streptococcus. As to the kind of experiment: Group A Streptococcus viability loss, dose response, counter-screen for streptokinase expression inhibitor project, luminescence, BacTiterGlo (AID 1915).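 Further: potency for reduction of bacterial viability or growth.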 It is filed as functional, organism-based.
Test [7] can be described thus: HEp-2 cell cytotoxicity, dose response, cytotoxicity control for RSV inhibitor project, HTS (AID 2410). To be noted: human respiratory syncytial virus. It is filed as functional.
In test [8] the target is Keap1/Nrf2 (Homo sapiens, UniProt Q14145). As to the kind of experiment: Keap1-Nrf2 protein-protein interaction inhibitors, dose response, biochemical, fluorescence polarization, cherry-picked samples (AID 588683).
Sequence of Keap1/Nrf2 (Q16236 whole entry): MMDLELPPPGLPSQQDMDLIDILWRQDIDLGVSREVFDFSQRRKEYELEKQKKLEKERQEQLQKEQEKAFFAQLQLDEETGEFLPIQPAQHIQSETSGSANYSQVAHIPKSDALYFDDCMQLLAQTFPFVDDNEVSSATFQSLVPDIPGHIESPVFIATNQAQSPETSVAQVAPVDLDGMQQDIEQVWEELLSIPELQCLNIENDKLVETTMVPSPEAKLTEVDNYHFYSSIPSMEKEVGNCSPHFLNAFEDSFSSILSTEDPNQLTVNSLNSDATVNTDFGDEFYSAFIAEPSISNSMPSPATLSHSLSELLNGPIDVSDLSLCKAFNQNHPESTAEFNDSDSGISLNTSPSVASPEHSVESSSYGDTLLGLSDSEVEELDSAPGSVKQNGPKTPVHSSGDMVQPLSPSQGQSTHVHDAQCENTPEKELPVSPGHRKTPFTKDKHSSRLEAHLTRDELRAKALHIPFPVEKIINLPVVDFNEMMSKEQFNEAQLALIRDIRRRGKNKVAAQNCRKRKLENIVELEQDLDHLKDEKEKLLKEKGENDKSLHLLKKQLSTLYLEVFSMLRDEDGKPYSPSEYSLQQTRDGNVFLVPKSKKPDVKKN
Sequence of Keap1/Nrf2 (Q14145 whole entry): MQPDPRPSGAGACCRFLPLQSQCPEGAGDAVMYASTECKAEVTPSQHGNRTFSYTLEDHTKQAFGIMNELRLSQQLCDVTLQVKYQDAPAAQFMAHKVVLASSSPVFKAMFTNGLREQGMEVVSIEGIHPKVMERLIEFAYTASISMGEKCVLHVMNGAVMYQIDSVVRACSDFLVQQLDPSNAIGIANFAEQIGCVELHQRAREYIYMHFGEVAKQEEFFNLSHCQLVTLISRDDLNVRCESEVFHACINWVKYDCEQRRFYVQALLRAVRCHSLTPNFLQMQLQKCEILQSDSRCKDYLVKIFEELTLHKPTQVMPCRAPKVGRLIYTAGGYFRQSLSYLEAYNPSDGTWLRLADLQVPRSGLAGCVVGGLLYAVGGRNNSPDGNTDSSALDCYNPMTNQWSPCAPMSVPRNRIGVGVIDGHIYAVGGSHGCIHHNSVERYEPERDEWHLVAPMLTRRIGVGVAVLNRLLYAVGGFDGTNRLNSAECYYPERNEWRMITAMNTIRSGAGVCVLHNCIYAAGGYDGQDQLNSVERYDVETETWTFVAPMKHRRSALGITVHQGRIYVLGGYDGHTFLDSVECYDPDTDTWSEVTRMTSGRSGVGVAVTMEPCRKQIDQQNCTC
Test [9] in a line: enhancers of respiration in Yfh1-depleted yeast, dose response, Friedreich's ataxia, plus single-dose screen (AID 1465).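 Further: yeast depleted of Yfh1p frataxin homolog grown on glycerol needing respiration; WST-1 tetrazolium dye reduction as measure of cellular dehydrogenase metabolic activity.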 It is filed as functional.
Test [10] concerns the target Beta-galactosidase (Escherichia coli, UniProt Q8VNN2). The experiment in a line: PubChem AID 485352. It is filed as functional.
Test [11] addresses T2, Type-1 angiotensin II receptor (Homo sapiens, UniProt P30556).
T2 sequence (P30556 whole entry): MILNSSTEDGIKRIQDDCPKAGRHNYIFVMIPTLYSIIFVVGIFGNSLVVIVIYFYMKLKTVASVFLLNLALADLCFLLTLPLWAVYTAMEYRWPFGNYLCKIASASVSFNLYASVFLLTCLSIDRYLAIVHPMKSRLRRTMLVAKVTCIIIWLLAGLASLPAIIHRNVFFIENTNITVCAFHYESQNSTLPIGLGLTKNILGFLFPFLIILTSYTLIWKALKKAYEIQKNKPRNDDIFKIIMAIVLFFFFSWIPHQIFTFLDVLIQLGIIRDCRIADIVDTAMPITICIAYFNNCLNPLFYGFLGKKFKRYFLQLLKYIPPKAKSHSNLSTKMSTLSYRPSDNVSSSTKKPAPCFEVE
The experiment in a line: AT1 receptor antagonists, dose response, selectivity assay for APJ receptor antagonist project, cell-based, uHTS hits (AID 463214).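 Further: antagonist potency against angiotensin II stimulated AT1 response.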 It is filed as functional.

Sequence of Beta-galactosidase (Q8VNN2 whole entry): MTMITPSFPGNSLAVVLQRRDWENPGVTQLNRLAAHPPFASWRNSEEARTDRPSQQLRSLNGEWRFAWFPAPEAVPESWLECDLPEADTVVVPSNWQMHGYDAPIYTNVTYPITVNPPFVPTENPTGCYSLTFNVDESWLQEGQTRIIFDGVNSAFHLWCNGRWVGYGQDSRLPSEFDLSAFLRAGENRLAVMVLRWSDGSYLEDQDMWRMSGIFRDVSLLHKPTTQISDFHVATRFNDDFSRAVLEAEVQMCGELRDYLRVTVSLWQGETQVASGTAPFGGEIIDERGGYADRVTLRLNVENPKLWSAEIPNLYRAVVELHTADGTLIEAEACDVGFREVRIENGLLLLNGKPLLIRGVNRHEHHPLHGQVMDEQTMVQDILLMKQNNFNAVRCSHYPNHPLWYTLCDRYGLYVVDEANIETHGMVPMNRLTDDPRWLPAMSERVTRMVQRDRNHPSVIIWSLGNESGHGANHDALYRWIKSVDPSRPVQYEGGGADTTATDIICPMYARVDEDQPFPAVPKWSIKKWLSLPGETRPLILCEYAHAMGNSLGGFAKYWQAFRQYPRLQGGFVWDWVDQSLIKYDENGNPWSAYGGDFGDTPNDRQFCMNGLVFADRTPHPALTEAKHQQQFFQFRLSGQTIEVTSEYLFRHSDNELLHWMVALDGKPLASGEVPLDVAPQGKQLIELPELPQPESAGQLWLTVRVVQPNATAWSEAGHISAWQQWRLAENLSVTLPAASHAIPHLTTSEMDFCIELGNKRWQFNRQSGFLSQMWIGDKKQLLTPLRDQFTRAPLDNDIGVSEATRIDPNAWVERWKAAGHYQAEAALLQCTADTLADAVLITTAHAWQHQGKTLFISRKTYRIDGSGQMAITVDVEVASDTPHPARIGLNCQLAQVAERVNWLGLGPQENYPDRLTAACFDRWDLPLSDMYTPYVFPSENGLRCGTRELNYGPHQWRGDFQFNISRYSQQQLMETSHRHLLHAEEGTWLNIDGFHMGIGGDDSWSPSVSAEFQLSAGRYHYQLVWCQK

As for `CC(C)c1ccc(NC(=O)c2snc3ccc(Cl)cc23)cc1`, the AC50 in test [1] was 3.02 µM (active); in test [2] it was 23.1 µM (active); in test [3] it was 52.8 µM (active).
For `O=C1CCCc2oc3c(cc(NS(=O)(=O)c4ccc5c6c(cccc46)C(=O)N5)c4ccccc43)c21`, the EC50 was > 150 µM (not active) in test [4], 3.82 µM (active) in [5], > 150 µM (not active) in [6] and > 100 µM (active) in test [9]. Further, in test [7], the CC50 is 25.1 µM (active). In [8], the AC50 was 51.2 µM (active).
For the compound `O=C1N=C(NS(=O)(=O)Cc2ccccc2)S/C1=C/c1cc([N+](=O)[O-])ccc1O`, the EC50 in test [10] was > 40 µM (inactive). The IC50 in test [11] was 39.9 µM (not active).
As to `Brc1csc(/C=N/Nc2nc3ccccc3s2)c1`, in [3], the concentration at half-maximal activity (AC50) is 46 µM (active).
